Data on one compound can be found in patent publication US4939133A, “N-substituted-2-hydroxy-α-oxo-benzeneacetamides and pharmaceutical compositions having activity as modulators of the arachidonic acid cascade” (Warner-Lambert Company, priority 1985, dated 1990).

Structures are written as SMILES.

The test has as its target Human Leukocyte Lipoxygenase. Nature of the test: Human Leukocyte Lipoxygenase Assay (LDA-H / LDAH). The format is biochemical. The note with it: 50% reduction of reaction rate vs control, E -number means X 10^-no. The method, then: Human Leukocyte Lipoxygenase Assay (LDA-H)
Whole blood is collected from normal volunteers and spun in a refrigerated centrifuge for four minutes at 1°-6° C. at 3800 g. The buffy coat is manually separated and washed twice with chilled 0.83% NH4 Cl and centrifuged at 1000 RPM for ten minutes at 4° C. The white cell is suspended in culture media-EMEM supplemented with 6% Agamma human serum, tricine buffer, and neomycin and recentrifuged at 1000 g to yield a pellet containing the leukocytes used for the preparation of the acetone pentane powder.
The acetone-pentane powder is prepared utilizing a modification of the procedure reported for human platelet lipoxygenase. See Siegel, et al, Arachidonate Metabolism via Lipoxygenase and 12-L-hydroperoxy-5-Eicostetraenoic acid Peroxidase Sensitive to Antiinflammatory Drugs, Proc. Natl. Acad. Sci., USA 77:308, 1980 and D. P. Wallach and V. R. Brown, a novel Preparation of Human Platlet Lipoxygenase, Biochem. Biophys. Acta. 663:361, 1981. Buffy coat prepared above is resuspended in 5-7 volumes of cold 0.1M Tris buffer, pH 7.4 containing 0.154M NaCl. The suspension is centrifuged at 13,300 g for ten minutes at 4° C. The resultant pellet was retained, resuspended in five volumes of cold acetone, recentrifuged at 13,300 g and resuspended in five volumes of cold pentane. The pentane suspension is centrifuged for ten minutes at 13,300 g to give a pellet which is dried in the cold under vacuum with periodic pulverization. The dry powder is stable for several weeks when stored at -88° C.
Enzyme stock solution is prepared in the following manner. About 15 mg of the acetone-pentane powder sis suspended in 4 ml of cold tris buffer (0.1M, pH 7.4), allowed to stand for five minutes, and homogenized thorougly. The homogenate is sonicated three times for 15 seconds each time, diluted to 7 ml with cold tris buffer (0.1M, pH 7.4), and centrifuged at 4° C. for 60 minutes at 13,300 g. The supernatent is retained and diluted to a total of 10 ml with cold tris buffer (0.1M, pH 7.4) to give the stck enzyme solution. Additional dilutions of 2-50 fold are done as necessary to locate optimal enzyme reaction rate in the assay described below.
Substrate solution is prepared at 100 μM or 1.0 μM concentrations of arachidonic acid or linoleic acid in 0.1M tris buffer, pH 9.0 containing 20% ethanol.
The enzyme reaction is followed spectrophotometrically by the appearance of a conjugated diene product at 234 nm. The reaction is monitored at 24° C. using a Gilford Model 2600 spectrophotometer. […] The effects of inhibitors on the reaction are compared with control reactions run under indentical conditions. Routinely, each compounds of the present invention is incubated with the enzyme for five minutes prior to addition of substrate to initiate the reaction. Inhibition expressed as IC50 as molar concentration of the compound required to reduce reaction rate to 50% control.

As a reminder, the IC50 is the concentration needed to halve the response being measured. In the case of `COc1ccc(CCc2ccc(NC(=O)c3ccc(C)cc3O)cc2)cc1OC` [Example 46, N-[4-[2-(3,4-Dimethoxyphenyl)ethyl]phenyl]-2-hydroxy-4-methylbenzamide], the IC50 amounted to 14 µM.
